The values that follow come from patent US20260210976A1, “METHOD TO DETECT AND TREAT PERIPHERAL NEUROPATHY” (Ohio State Innovation Foundation, priority 2022, published 2026).

Structures are written as SMILES.

Data set [1] relates to PSD95 and PGP9.5 protein expression in scWAT. The data set is described as follows: Western blot of scWAT after daily intra-adipose CL316 243. The format is in vivo. The conditions noted are these: daily intra-adipose administration for 7 days.
Another data set has as its system scWAT. Briefly: Hematoxylin staining of scWAT sections. The format is in vivo, mouse. An excerpt: Intact inguinal scWAT (ing-scWAT), axillary scWAT (ax-scWAT), and perigonadal WAT (pgWAT) depots were excised from BL6 and HET3 mice, fixed in 10% buffered formalin overnight at room temperature and embedded in paraffin. Paraffin embedded tissues were sectioned 7 μm thick. Tissue sections were deparaffinized with HistoChoice Clearing Agent and hydrated in decreasing concentrations of EtOH (100%, 95% 70%, 30%, 0%). Tissues were stained in Mayer's Hematoxylin Solution (Sigma-Aldrich Cat #MHS16) or Mayer's Hemalum Solution (Sigma-Aldrich Cat #109249) and a drop of mounting fluid was applied, and tissues were cover slipped, sealed, and imaged. Three representative images were captured per tissue per animal and cell perimeter and area was measured in Fiji (Schindelin et al., 2012).

For data set [2] the following is noted: Harrison et al., 2009; cited from earlier work.
The subject of data set [3] is diabetic NONcNZO10/LtJ mice. The conditions noted are these: 14 ppm diet-fed (Reifsnyder, Doty, & Harrison, 2014); cited from earlier work.
The test system of a further data set is scWAT collagen. The data set is described as follows: Picrosirius red staining and collagen birefringence quantification of scWAT. The format is in vivo, mouse. An excerpt: Intact scWAT and pgWAT depots were excised from BL6 and HET3 mice, fixed in 10% buffered formalin overnight at room temperature and embedded in paraffin. Paraffin embedded tissues were sectioned 7 μm thick. Tissue sections were deparaffinized with HistoChoice Clearing Agent (Sigma-Aldrich Cat #H2779) and hydrated in decreasing concentrations of EtOH (100%, 95% 70%, 30%, 0%). Tissues were stained in picrosirius red stain (Electron Microscopy Sciences Cat #26357) for 1 hr, washed in two changes of acidified water (5 seconds each), dehydrated in three changes of 100% EtOH, cleared in histo-grade Xylenes for 5 minutes and cover slipped using Permount mounting media (Electron Microscopy Sciences Cat #17986-01). Five representative images per tissue were captured using both brightfield and circularly polarized light to gauge collagen distribution. Total collagen was measured by first quantifying the area comprised by picrosirius red staining in the field of view using brightfield microscopy. This was then divided by the area comprised exclusively of polarized collagen fibers. […] To differentiate the relative contribution of collagen fiber thicknesses, methods were adapted from (Rich & Whittaker, 2005) for use in Fiji (Schindelin et al., 2012). Hue values used for this analysis were as follows: green (52-128), yellow (39-51), orange (10-38), and red (0-9, 230-255). Saturation was not accounted for, and brightness was thresholded at 35-255 to prevent noise from being included in pixel counts. See FIG. 11 for a schematic of this method.

Consider `C[C@H](Cc1ccc2c(c1)OC(C(=O)[O-])(C(=O)[O-])O2)NC[C@H](O)c1cccc(Cl)c1.[Na+].[Na+]` [CL316 243], for which, in data set [1], the “PGP9.5 protein expression in scWAT” value is reported as “upward trend” and the “PSD95 expression in scWAT” value was “increased”.
Turning to `CO[C@H]1C[C@@H]2CC[C@@H](C)[C@@](O)(O2)C(=O)C(=O)N2CCCC[C@H]2C(=O)O[C@H]([C@H](C)C[C@@H]2CC[C@@H](O)[C@H](OC)C2)CC(=O)[C@H](C)/C=C(\C)[C@@H](O)[C@@H](OC)C(=O)[C@H](C)C[C@H](C)/C=C/C=C/C=C/1C` [rapamycin], in the data set with scWAT (early-intervention group (started ~30 weeks)), the “crown-like structures, lipofuscin and immune cell infiltration in scWAT” value is listed as “increased”. Also, the “crown-like structures, lipofuscin and immune cell infiltration in scWAT” value in the data set with scWAT (late-intervention group (started ~72 weeks)) was “not observed”. Also, the “circulating rapamycin, males versus females” value in data set [2] is listed as “equivalent”. Also, the pancreatic fibrosis result in data set [3] is “caused pancreatic fibrosis”. Further, the “total increase in collagen between treatment groups” value in the data set with scWAT collagen (early-intervention) is listed as “not statistically significant”. Moreover, the “collagen deposition versus vehicle group” value in the data set on scWAT collagen (early-intervention group) is “greater”. For the same molecule, in the data set on scWAT collagen (early-intervention, females), the “animals exhibiting severely fibrotic tissue” value is given as 3 out of 11. Further, in the data set with scWAT collagen (early-intervention, males), the “animals exhibiting severely fibrotic tissue” value is on record as 3 out of 8; the “green collagen fibers (birefringence)” value is “decreased”; the “orange collagen fibers (birefringence)” value is recorded as “increased”; the “thick collagen fibers (orange+red), share of thin:thick ratio” value is 75%. Moreover, the “thin collagen fibers, share of thin:thick ratio” value in the data set with scWAT collagen (early-intervention, males) was 25%. Besides, in the data set with scWAT collagen (late-intervention), the birefringence patterns result is listed as “did not vary”. In addition, the total collagen entry in the data set with scWAT collagen (late-intervention, females) is reported as “no difference”. In addition, the total collagen entry with scWAT collagen (late-intervention, males, failed to meet statistical significance) is listed as “possible increase”. Moreover, the “adipose tissue inflammation and fibrosis” value with scWAT collagen (overall statement) was “worsened”. Further, the scWAT fibrosis entry in the data set with scWAT collagen (treatment started early in life) is given as “increased”.
